Source: the NIST ThermoML archive (doi:10.1016/j.jct.2010.12.010)
Where “and” joins values, the source holds several entries; their conditions need not be identical. Identical values can stand only once.

Details: Liquid, Manometric method

CC(N)CN (centres undefined) [1,2-propanediamine]
Details | vapor or sublimation pressure
284.01 K | 0.5922 kPa
293.15 K | 1.085 kPa
293.98 K | 1.147 kPa and 1.145 kPa
303.15 K | 2.004 kPa
303.91 K | 2.1 kPa and 2.098 kPa
313.15 K | 3.535 kPa
313.84 K | 3.667 kPa and 3.669 kPa and 3.659 kPa
323.15 K | 5.985 kPa
324.02 K | 6.238 kPa
333.15 K | 9.764 kPa
334 K | 10.11 kPa
343.15 K | 15.41 kPa
353.15 K | 23.61 kPa
363.15 K | 35.21 kPa
363.91 K | 36.31 kPa and 36.33 kPa

NCCCN [1,3-propanediamine]
Details | vapor or sublimation pressure
284.84 K | 0.3186 kPa and 0.3177 kPa
293.15 K | 0.5332 kPa
294.82 K | 0.5842 kPa
303.15 K | 0.9648 kPa
313.15 K | 1.688 kPa
314.79 K | 1.829 kPa
323.15 K | 2.863 kPa
324.9 K | 3.145 kPa
333.15 K | 4.72 kPa
334.87 K | 5.175 kPa
343.15 K | 7.58 kPa
344.87 K | 8.263 kPa
353.15 K | 11.88 kPa
354.83 K | 12.67 kPa
363.15 K | 18.22 kPa
364.78 K | 19.47 kPa

NCCCCN [1,4-butanediamine]
Details | vapor or sublimation pressure
284.92 K | 0.1292 kPa and 0.1296 kPa
293.15 K | 0.2012 kPa
303.15 K | 0.3324 kPa
312.83 K | 0.54 kPa
313.15 K | 0.5322 kPa
323.15 K | 0.8282 kPa
332.86 K | 1.276 kPa
333.15 K | 1.256 kPa
342.85 K | 1.703 kPa
343.15 K | 1.859 kPa
352.87 K | 2.691 kPa and 2.692 kPa
353.15 K | 2.692 kPa
362.86 K | 3.797 kPa and 3.813 kPa and 3.794 kPa
362.88 K | 3.8 kPa
362.9 K | 3.807 kPa
363.15 K | 3.822 kPa

NCCN [ethane-1,2-diamine]
Details | vapor or sublimation pressure
285.5 K | 0.659 kPa
293.15 K | 1.139 kPa
303.15 K | 2.179 kPa
305.44 K | 2.559 kPa
313.15 K | 3.937 kPa
315.43 K | 4.484 kPa
315.48 K | 4.485 kPa
323.15 K | 6.767 kPa
326.2 K | 7.827 kPa
333.15 K | 11.13 kPa
335.88 K | 12.41 kPa
343.15 K | 17.62 kPa
345.7 K | 19.74 kPa and 19.73 kPa and 19.72 kPa
353.15 K | 26.93 kPa
355.67 K | 29.85 kPa and 29.83 kPa
355.69 K | 29.84 kPa
363.15 K | 39.94 kPa
365.6 K | 43.83 kPa [middle of 4 runs]
365.63 K | 43.82 kPa and 43.83 kPa and 43.81 kPa

O [water]
Details | vapor or sublimation pressure
285.15 K | 1.362 kPa
293.15 K | 2.277 kPa
295.14 K | 2.562 kPa
303.15 K | 4.165 kPa
313.15 K | 7.284 kPa
315.19 K | 8.02 kPa
323.15 K | 12.23 kPa
325.11 K | 13.5 kPa and 13.53 kPa
325.13 K | 13.5 kPa and 13.52 kPa and 13.53 kPa
333.15 K | 19.82 kPa
335.12 K | 21.77 kPa
343.15 K | 31.09 kPa
345.05 K | 33.84 kPa
345.07 K | 33.85 kPa and 33.84 kPa
353.15 K | 47.34 kPa
355.03 K | 51.15 kPa
363.15 K | 70.22 kPa
364.97 K | 75.14 kPa [middle of 5 runs]
